# Reference: ChEMBL document CHEMBL2321811, “Conjugates of modified cryptophycins and RGD-peptides enter target cells by endocytosis” (J Med Chem, 2013)
# Legend:
# [1] = Cytotoxicity against human KBV1 cells by resazurin reduction assay; assay type: functional, cell-based; conditions: KB-V1
# [2] = Cytotoxicity against human KB-3-1 cells by resazurin reduction assay; assay type: functional, cell-based
# [3] = Binding affinity to integrin in human WM-115 cells after 30 mins by immobilized vitronectin-based competitive cell adhesion assay
IC50 [3] [nM],SMILES,IC50 [1] [nM],IC50 [2] [nM]
,C=CCOC(=O)C[C@H]1CNC(=O)[C@@H](Cc2ccc(OC)c(Cl)c2)NC(=O)/C=C/C[C@@H]([C@H](C)[C@H]2O[C@@H]2c2ccccc2)OC(=O)[C@H](CC(C)C)OC1=O,6,0.0083
,COc1ccc(C[C@H]2NC(=O)/C=C/C[C@@H]([C@H](C)[C@H]3O[C@@H]3c3ccccc3)OC(=O)[C@H](CC(C)C)OC(=O)[C@H](CCCN=[N+]=[N-])CNC2=O)cc1Cl,18.4,0.112
500,CC(C)[C@@H]1NC(=O)[C@@H](Cc2ccccc2)NC(=O)[C@H](CC(=O)O)NC(=O)CNC(=O)[C@H](CCCN=C(N)N)NC1=O [CYCLORGDFV],,
,C=CCOCCC[C@H]1CNC(=O)[C@@H](Cc2ccc(OC)c(Cl)c2)NC(=O)/C=C/C[C@@H]([C@H](C)[C@H]2O[C@@H]2c2ccccc2)OC(=O)[C@H](CC(C)C)OC1=O,38,0.0527
,COc1ccc(C[C@H]2NC(=O)/C=C/C[C@@H]([C@H](C)[C@H]3O[C@@H]3c3ccccc3)OC(=O)[C@H](CC(C)C)OC(=O)[C@@H](CCCn3cc(C[C@@H]4NC(=O)[C@@H](Cc5ccccc5)NC(=O)[C@H](CC(=O)O)NC(=O)CNC(=O)[C@H](CCCNC(=N)N)NC4=O)nn3)CNC2=O)cc1Cl,1800,55.8
,COc1ccc(C[C@H]2NC(=O)/C=C/C[C@@H]([C@H](C)[C@H]3O[C@@H]3c3ccccc3)OC(=O)[C@H](CC(C)C)OC(=O)[C@H](CCCn3cc(C(C)(C)O)nn3)CNC2=O)cc1Cl,411,0.101
,COc1ccc(C[C@H]2NC(=O)/C=C/C[C@@H]([C@H](C)[C@H]3O[C@@H]3c3ccccc3)OC(=O)[C@H](CC(C)C)OC(=O)[C@H](CCN=[N+]=[N-])CNC2=O)cc1Cl,2.1,0.0216
,COc1ccc(C[C@H]2NC(=O)/C=C/C[C@@H]([C@H](C)[C@H]3O[C@@H]3c3ccccc3)OC(=O)[C@H](CC(C)C)OC(=O)C(C)(C)CNC2=O)cc1Cl [CRYPTOPHYCIN 52],0.26,0.0155
,C=CCOC(=O)C[C@@H]1CNC(=O)[C@@H](Cc2ccc(OC)c(Cl)c2)NC(=O)/C=C/C[C@@H]([C@H](C)[C@H]2O[C@@H]2c2ccccc2)OC(=O)[C@H](CC(C)C)OC1=O,2.7,0.0961
,COc1ccc(C[C@H]2NC(=O)/C=C/C[C@@H]([C@H](C)[C@H]3O[C@@H]3c3ccccc3)OC(=O)[C@H](CC(C)C)OC(=O)[C@H](CCCCN=[N+]=[N-])CNC2=O)cc1Cl,23.5,0.249
,C=CCOC(=O)CCC[C@@H]1CNC(=O)[C@@H](Cc2ccc(OC)c(Cl)c2)NC(=O)/C=C/C[C@@H]([C@H](C)[C@H]2O[C@@H]2c2ccccc2)OC(=O)[C@H](CC(C)C)OC1=O,45.2,0.433
,COc1ccc(C[C@H]2NC(=O)/C=C/C[C@@H]([C@H](C)[C@H]3O[C@@H]3c3ccccc3)OC(=O)[C@H](CC(C)C)OC(=O)[C@@H](CCN=[N+]=[N-])CNC2=O)cc1Cl,14.1,0.0546
,COc1ccc(C[C@H]2NC(=O)/C=C/C[C@@H]([C@H](C)[C@H]3O[C@@H]3c3ccccc3)OC(=O)[C@H](CC(C)C)OC(=O)[C@@H](CCCN=[N+]=[N-])CNC2=O)cc1Cl,114,11.5
,COc1ccc(C[C@H]2NC(=O)/C=C/C[C@@H]([C@H](C)[C@H]3O[C@@H]3c3ccccc3)OC(=O)[C@H](CC(C)C)OC(=O)[C@@H](CCCn3cc(C(C)(C)O)nn3)CNC2=O)cc1Cl,3020,0.312
,C=CCOCCC[C@@H]1CNC(=O)[C@@H](Cc2ccc(OC)c(Cl)c2)NC(=O)/C=C/C[C@@H]([C@H](C)[C@H]2O[C@@H]2c2ccccc2)OC(=O)[C@H](CC(C)C)OC1=O,26.6,0.149
